Assay results as given in patent US4507318A, “1-Aryl 2-aminomethyl cyclopropane carboxylates (Z) as drugs in the treatment of pain” (Pierre Fabre S.A., priority 1981, dated 1985).
Counter-ions that a name gives are not always drawn.

Assays:
Solubility in water = type: physicochemical
Solubility in DMA = type: physicochemical

## CCOC(=O)[C@]1(c2ccccc2)C[C@@H]1CN(C)C1CCCCC1 (relative stereo) [Example 19, Fumarate of 1-phenyl 1-ethoxycarbonyl 2-N-methyl-N-cyclohexyl-aminomethyl cyclopropane (Z)]
Solubility in water
  Solubility in water (in words): insoluble in water
Solubility in DMA
  Solubility in DMA: 5%
